Measurements reported in ChEMBL document CHEMBL5512663, “Design, synthesis, and evaluation of novel quindoline derivatives with fork-shaped side chains as RNA G-quadruplex stabilizers for repressing oncogene NRAS translation” (Eur J Med Chem, 2024).
One block for each molecule: values may come before it. Activity calls are given as the source filed them. No cut-off for these calls is given here.

Key:
[1] = test system: SK-MEL-2; assay: Cytotoxicity against human SK-MEL-2 cells incubated for 48 hrs by MTT assay; assay type: functional, cell-based; conditions: SK-MEL-2, 48 h
[2] = test system: Quadruplex RNA; assay: Thermal stabilization of NRAS RNA G4 (unknown origin) assessed as change in melting temperature at 10 uM by CD spectrophotometer analysis; assay type: nucleic-acid assay
[3] = Toxicity in BALB/c nude mouse assessed as discomfort at 1 mg/kg, ip administered every day for 21 days; assay type: organism-based; conditions: in vivo, 504 h, time 21 day
[4] = test system: HepG2; assay: Cytotoxicity against human HepG2 cells incubated for 48 hrs by MTT assay; assay type: functional, cell-based; conditions: HepG2, 48 h
[5] = test system: dsDNA; assay: Thermal stabilization of DNA duplex (ds18) (unknown origin); assay type: nucleic-acid assay
[6] = test system: Quadruplex RNA; assay: Induction of NRAS RNA G4 stabilization in human SK-MEL-2 cells transfected with NRAS mutant assessed as reduction in ratio of RL to FL at 0.5 uM incubated for 66 hrs by dual luciferase reporter gene assay; assay type: cell-based
[7] = test system: Quadruplex RNA; assay: Induction of RNA G4s stabilization in human SK-MEL-2 cells assessed as increase in cytoplasmic rG4s after 24 hrs by immunofluorescence assay; assay type: cell-based
[8] = test system: SK-MEL-2; assay: Downregulation of NRAS mRNA level in human SK-MEL-2 cells by qRT-PCR analysis; assay type: functional, cell-based
[9] = test system: SK-MEL-2; assay: Downregulation of NRAS protein level in human SK-MEL-2 cells after 72 hrs by Western blotting analysis; assay type: functional, cell-based; conditions: dose 0.5-1 µM
[10] = test system: A-375; assay: Cytotoxicity against human A-375 cells incubated for 48 hrs by MTT assay; assay type: functional, cell-based; conditions: A-375, 48 h
[11] = test system: SK-MEL-2; assay: Antiproliferative activity against human SK-MEL-2 cells at 0.25 uM incubated for 48 hrs by MTT assay; assay type: functional
[12] = Toxicity in BALB/c nude mouse assessed as distress at 1 mg/kg, ip administered every day for 21 days; assay type: organism-based; conditions: in vivo, 504 h, time 21 day
[13] = test system: Quadruplex RNA; assay: Induction of NRAS RNA G4 stabilization in human SK-MEL-2 cells transfected with NRAS 5'-UTR wild-type assessed as reduction in ratio of RL to FL at 0.5 uM incubated for 66 hrs by dual luciferase reporter gene assay; assay type: cell-based
[14] = test system: HL-60; assay: Cytotoxicity against human HL-60 cells incubated for 48 hrs by MTT assay; assay type: functional, cell-based; conditions: HL-60, 48 h
[15] = biological target: Quadruplex RNA; assay: Binding affinity to NRAS RNA G4 (unknown origin) by SPR method; assay type: nucleic-acid assay
[16] = Drug localization in human SK-MEL-2 cells cytoplasm at 0.5 uM incubated for 24 hrs by laser scanning confocal microscopy; assay type: ADME, subcellular; conditions: sk-mel-2, 24 h
[17] = test system: SK-MEL-2; assay: Antitumor activity against human SK-MEL-2 cells xenografted in BALB/c nude mouse assessed as reduction in tumor weight at 1 mg/kg, ip; assay type: functional, organism-based; conditions: time 21.0 day, TDE = time-dependent effect
[18] = test system: SK-MEL-2; assay: Antitumor activity against human SK-MEL-2 cells xenografted in BALB/c nude mouse assessed as reduction in tumor volume at 1 mg/kg, ip measured every 3 days; assay type: functional, organism-based; conditions: time 21.0 day, TDE = time-dependent effect
[19] = test system: SK-MEL-2; assay: Inhibition of colony formation in human SK-MEL-2 cells at 0.13 to 0.25 uM after 10 days by crystal violet staining based assay; assay type: functional, cell-based; conditions: dose 0.13-0.25 µM, time 10.0 day
[20] = Toxicity in BALB/c nude mouse assessed as organ damage at 1 mg/kg, ip administered every day for 21 days; assay type: organism-based; conditions: in vivo, 504 h, time 21 day
[21] = Toxicity in BALB/c nude mouse assessed as weight loss at 1 mg/kg, ip administered every day for 21 days and measured every 3 days; assay type: organism-based; conditions: in vivo, 504 h, time 21 day
[22] = test system: Quadruplex DNA; assay: Thermal stabilization of KRAS G4 (unknown origin); assay type: nucleic-acid assay
[23] = Thermal stabilization of thrombin binding aptamer (unknown origin)
[24] = test system: SK-MEL-2; assay: Antitumor activity against human SK-MEL-2 cells xenografted in BALB/c nude mouse assessed as reduction in tumor growth inhibition at 1 mg/kg, ip administered every day for 21 days; assay type: functional; conditions: SK-MEL-2, 504 h, time 21 day, read-out: TGI
[25] = test system: Quadruplex DNA; assay: Thermal stabilization of NRAS DNA G4 (unknown origin) assessed as change in melting temperature at 10 uM by CD spectrophotometer analysis; assay type: nucleic-acid assay
[26] = test system: MCF7; assay: Cytotoxicity against human MCF7 cells incubated for 48 hrs by MTT assay; assay type: functional, cell-based; conditions: MCF7, 48 h
[27] = Toxicity in BALB/c nude mouse assessed as pain at 1 mg/kg, ip administered every day for 21 days; assay type: organism-based; conditions: in vivo, 504 h, time 21 day
[28] = test system: RNA; assay: Thermal stabilization of RNA hairpin (unknown origin); assay type: nucleic-acid assay

Compound: CCCCN(CCCC)CCCNc1ccc2nc3c(oc4ccc(F)cc43)c(NCCN(C)C)c2c1
IC50 [1]: 3.4 µM | ΔTm [2]: 19.4 °C

Compound: CCCCN(CCCC)CCCOc1ccc2nc3c(oc4ccc(F)cc43)c(NCCCN)c2c1
Activity [3]: Non-Toxic | IC50 [4]: 1.5 µM | Activity [5]: inactive | Activity [6]: inactive | Activity [7]: Active | Activity [8]: inactive | Activity [9]: Dose-Dependent Effect | IC50 [10]: 4.5 µM | Activity [11]: 100% | Activity [12]: Non-Toxic | IC50 [1]: 2 µM | Activity [13]: Active | IC50 [14]: 2.7 µM | Kd [15]: 2.31 µM | Drug uptake [16]: Active | Activity [17]: Tde | Activity [18]: Tde | inhibition [19]: Active | Activity [20]: Non-Toxic | Activity [21]: Non-Toxic | Activity [22]: inactive | Activity [23]: inactive | inhibition in vivo at 1 mg/kg [24]: 54.9% | ΔTm [25]: 19 °C | IC50 [26]: 4.1 µM | ΔTm [2]: 26.1 °C | Activity [27]: Non-Toxic | Activity [28]: inactive

Compound: CCCCN(CCCC)CCCOc1ccc2nc3c(oc4ccccc43)c(NCCN(C)C)c2c1
IC50 [1]: 5.7 µM | ΔTm [2]: 22 °C

Compound: CCCCN(CCCC)CCCOc1ccc2nc3c(oc4ccccc43)c(NCCN3CCCC3)c2c1
IC50 [1]: 4.5 µM | ΔTm [2]: 20.2 °C

Compound: CCN(CC)CCCOc1ccc2nc3c(oc4ccc(F)cc43)c(NCCN)c2c1
IC50 [1]: 6.7 µM | ΔTm [2]: 21.2 °C

Compound: CCCCN(CCCC)CCOc1ccc2nc3c(oc4ccc(F)cc43)c(NCCN)c2c1
IC50 [1]: 5.1 µM | ΔTm [2]: 13.4 °C

Compound: CCCCN(CCCC)CCOc1ccc2nc3c(oc4ccc(F)cc43)c(NCCN3CCN(C)CC3)c2c1
IC50 [1]: 7.6 µM | ΔTm [2]: 30.6 °C

Compound: CCCCN(CCCC)CCOc1ccc2nc3c(oc4ccc(F)cc43)c(NCCCN)c2c1
IC50 [1]: 2 µM | ΔTm [2]: 22.1 °C

Compound: CCCCN(CCCC)CCCOc1ccc2nc3c(oc4ccccc43)c(NCCCN)c2c1
IC50 [1]: 2.6 µM | ΔTm [2]: 19.5 °C

Compound: CCCCN(CCCC)CCCOc1ccc2nc3c(oc4ccc(F)cc43)c(NCCN)c2c1
IC50 [1]: 2.2 µM | ΔTm [2]: 22.9 °C

Compound: CCCCN(CCCC)CCCOc1ccc2nc3c(oc4ccc(F)cc43)c(NCCN3CCN(C)CC3)c2c1
IC50 [1]: 4 µM | ΔTm [2]: 31.8 °C

Compound: CCCCN(CCCC)CCCNc1ccc2nc3c(oc4ccc(F)cc43)c(NCCN3CCN(C)CC3)c2c1
IC50 [1]: 4.3 µM | ΔTm [2]: 25.5 °C

Compound: CCCCN(CCCC)CCCNc1ccc2nc3c(oc4ccc(F)cc43)c(NCCN3CCCC3)c2c1
IC50 [1]: 3.4 µM | ΔTm [2]: 19.8 °C

Compound: CCN(CC)CCCOc1ccc2nc3c(oc4ccc(F)cc43)c(NCCCN)c2c1
IC50 [1]: 3.9 µM | ΔTm [2]: 25.3 °C

Compound: CCCCN(CCCC)CCCNc1ccc2nc3c(oc4ccc(F)cc43)c(NCCCN)c2c1
IC50 [1]: 4.5 µM | ΔTm [2]: 19.3 °C

Compound: CCCCN(CCCC)CCCOc1ccc2nc3c(oc4ccc(F)cc43)c(NCCN(C)C)c2c1
IC50 [1]: 4 µM | ΔTm [2]: 23.9 °C

Compound: CSc1ccc(/C=C/c2ccc3nc4c(oc5ccccc54)c(NCCN4CCN(C)CC4)c3c2)cc1
IC50 [1]: 3.2 µM | ΔTm [2]: 16.8 °C

Compound: CCCCN(CCCC)CCCNc1ccc2nc3c(oc4ccc(F)cc43)c(NCCN3CCCCC3)c2c1
IC50 [1]: 5.4 µM | ΔTm [2]: 21.3 °C

Continued, in another order:

ΔTm [2]: 24.1 °C
Compound: CN(C)CCCCCCOc1ccc2nc3c(oc4ccc(F)cc43)c(NCCN(C)C)c2c1
IC50 [1]: 7.2 µM

ΔTm [2]: 24.4 °C
Compound: CCCCN(CCCC)CCCOc1ccc2nc3c(oc4ccc(F)cc43)c(NCCN3CCCCC3)c2c1
IC50 [1]: 5.5 µM

ΔTm [2]: 24.2 °C
Compound: NCCCNc1c2cc(OCCN3CCCCCC3)ccc2nc2c1oc1ccc(F)cc12
IC50 [1]: 5.4 µM

ΔTm [2]: 24 °C
Compound: CCCCN(CCCC)CCOc1ccc2nc3c(oc4ccc(F)cc43)c(NCCN3CCCC3)c2c1
IC50 [1]: 5.1 µM

ΔTm [2]: 26.3 °C
Compound: CCCCN(CCCC)CCOc1ccc2nc3c(oc4ccc(F)cc43)c(NCCN(C)C)c2c1
IC50 [1]: 4.5 µM

ΔTm [2]: 21.4 °C
Compound: Fc1ccc2oc3c(NCCN4CCCC4)c4cc(OCCN5CCCCCC5)ccc4nc3c2c1
IC50 [1]: 6.9 µM

ΔTm [2]: 26.3 °C
Compound: CCN(CC)CCCOc1ccc2nc3c(oc4ccc(F)cc43)c(NCCN(C)C)c2c1
IC50 [1]: 6.4 µM

ΔTm [2]: 25.3 °C
Compound: CN(C)CCCCCCOc1ccc2nc3c(oc4ccc(F)cc43)c(NCCCN)c2c1
IC50 [1]: 7.7 µM

ΔTm [2]: 26.3 °C
Compound: CCN(CC)CCCOc1ccc2nc3c(oc4ccc(F)cc43)c(NCCN3CCCC3)c2c1
IC50 [1]: 7.1 µM

ΔTm [2]: 18.1 °C
Compound: CN(C)CCNc1c2cc(OCCN3CCCCCC3)ccc2nc2c1oc1ccc(F)cc12
IC50 [1]: 6.6 µM

ΔTm [2]: 24.8 °C
Compound: CN(C)CCCCCCOc1ccc2nc3c(oc4ccc(F)cc43)c(NCCN3CCCC3)c2c1
IC50 [1]: 7.4 µM

ΔTm [2]: 20.7 °C
Compound: CN(C)CCCCCCOc1ccc2nc3c(oc4ccc(F)cc43)c(NCCN)c2c1
IC50 [1]: 7.1 µM

ΔTm [2]: 18.1 °C
Compound: NCCNc1c2cc(OCCN3CCCCCC3)ccc2nc2c1oc1ccc(F)cc12
IC50 [1]: 6.3 µM

ΔTm [2]: 20.8 °C
Compound: CCCCN(CCCC)CCCOc1ccc2nc3c(oc4ccc(F)cc43)c(NCCN3CCCC3)c2c1
IC50 [1]: 4 µM

ΔTm [2]: 26.2 °C
Compound: CCCCN(CCCC)CCOc1ccc2nc3c(oc4ccc(F)cc43)c(NCCN3CCCCC3)c2c1
IC50 [1]: 8.8 µM
